PubChem BioAssay AID2060490 (Molecular Pharmacology Branch, DTP, NCI, 2025)
pIC50: −log10 of the molar value.

System: 885512-296-R-J2-PDC complex spheroid viability
Experiment: Anticancer human tumor 885512-296-R-J2-PDC patient-derived breast carcinoma cell line growth inhibition [GQUAD]
Conditions: for pIC50: curve of first compound; for viability, T/C: stronger effect = lower value; active = viability on the fitted dose curve at most 10% of control; inactive = the rest
Source text: DNA G-quadruplex Stabilizer Agents in Combinations in Complex Spheroids
A high-throughput screen of multi-cell type tumor spheroids was designed to identify active combinations of DNA G-quadruplex stabilizer agents and targeted small molecules. Complex spheroids include a stromal component modeled by human endothelial cells (HUVEC) and fibroblasts modeled by human mesenchymal stem cells (MSCs). The concentration ranges selected for each drug and investigational agent were based upon clinically achievable concentrations if the clinical Cmax of the agent was known.
Compounds. The drugs and investigational agents: pidnarulex (CX-5461; NSC782164), APTO-253 (NSC789042), BRACO-19 (NSC847499), peposertib (NSC802822), ceralasertib (NSC780249), elimusertib (NSC800525), camonsertib (NSC841442), AZD-1390 (NSC803789), olaparib (NSC753686), talazoparib (NSC767125), ART-558 (NSC835418), sotorasib (NSC818433), MRTX-1133 (NSC836407), SN-38 (NSC673596), topotecan (NSC609699), etoposide (NSC141540), doxorubicin (NSC123127), gemcitabine (NSC613327), 5-fluorouracil (NSC19893), paclitaxel (NSC125973), vemurafenib (NSC761431), panobinostat (NSC761190), R-306465 (JNJ-16241199; NSC773264), adavosertib (NSC754352), TP-3654 (NSC805149), carboplatin (NSC241240), KSQ-4279 (NSC840948), and staurosporine (NSC755774) were obtained from the National Cancer Institute (NCI) Developmental Therapeutics Program Chemical Repository (34). The FDA-approved anticancer drug set is available from the NCI Developmental Therapeutics Program. […] The stock solutions were prepared in dimethyl sulfoxide (DMSO, Sigma-Aldrich, St. Louis, MO, cat. D2650) at 800-fold the tested concentration and stored at -70 degrees C prior to their use. All drugs and investigational agents were tested over a range starting from a high concentration at or near the clinical Cmax and decreasing in half-log increments. If the clinical Cmax for an agent had not been determined, the highest concentration tested was 10 microM.
2.3 Cell Culture. All cells were maintained in an incubator at 37 degrees C and 5% CO2 with 95% humidity. The PDC lines were cultured according to standard operating procedures established by the NCI PDMR. All PDCs were thawed and cultured in Matrigel-coated flasks prepared with a working solution of 1X Ham's F-12 nutrient mix, without supplementation (Invitrogen, cat. 11765054), 100 U/mL penicillin-streptomycin (Invitrogen, cat. 15140122), and 2.5% Matrigel (Corning Inc., cat. 354248) for the first three passages. The 857933-349-R-J2-PDC line was cultured in 6C/Colon 1B media, which includes advanced DMEM/F-12 (Thermo Fisher Scientific, cat. 12634028), 10 mM HEPES (Thermo Fisher Scientific, cat. 15630080), 1X GlutaMAX supplement (Thermo Fisher Scientific, cat. 35050061), 0.1 mg/mL primocin (InvivoGen, cat. ant-pm-2), 10% defined fetal bovine serum, heat inactivated (HyClone Laboratories Inc., cat. SH30070.03HI), 50% L-WRN conditioned media (ATCC, cat. CRL-3276), 1.25 mM N-Acetyl-L-cysteine (Sigma-Aldrich, cat. A9165), 10 mM nicotinamide (Sigma-Aldrich, cat. N0636), 1X B-27 supplement (Thermo Fisher Scientific, cat. 17504044), 1X N-2 supplement (Thermo Fisher Scientific, cat. 17502048), 10 microM Y-27632 dihydrochloride (Tocris Bioscience, cat. 1254), and 50 ng/mL human EGF recombinant protein (Thermo Fisher Scientific, cat. PHG0311). The 485176-168-R4-J1-PDC line was cultured in Panc media, which includes all 6C/Colon 1B media components plus 100 ng/mL human FGF-10 (Thermo Fisher Scientific, cat. 100-26), 500 nM SB-431542 (Selleckchem, cat. S1067), and gastrin (Tocris, cat. 3006).
[…]

[1] = second compound 0.0316 µM, first compound 0.0316 µM
[2] = second compound 0.0316 µM, first compound 0.1 µM
[3] = second compound 0.0316 µM, first compound 0.316 µM
[4] = second compound 0.0316 µM, first compound 1 µM
[5] = second compound 0.0316 µM, first compound 3.16 µM
[6] = second compound 0.0316 µM, first compound 10 µM
[7] = second compound 0.1 µM, first compound 0.0316 µM
[8] = second compound 0.1 µM, first compound 0.1 µM
[9] = second compound 0.1 µM, first compound 0.316 µM
[10] = second compound 0.1 µM, first compound 1 µM
[11] = second compound 0.1 µM, first compound 3.16 µM
[12] = second compound 0.1 µM, first compound 10 µM
[13] = second compound 0.316 µM, first compound 0.0316 µM
[14] = second compound 0.316 µM, first compound 0.1 µM
[15] = second compound 0.316 µM, first compound 0.316 µM
[16] = second compound 0.316 µM, first compound 1 µM
[17] = second compound 0.316 µM, first compound 3.16 µM
[18] = second compound 0.316 µM, first compound 10 µM
[19] = second compound 1 µM, first compound 0.0316 µM
[20] = second compound 1 µM, first compound 0.1 µM
[21] = second compound 1 µM, first compound 0.316 µM
[22] = second compound 1 µM, first compound 1 µM
[23] = second compound 1 µM, first compound 3.16 µM
[24] = second compound 1 µM, first compound 10 µM
[25] = second compound 3.16 µM, first compound 0.0316 µM
[26] = second compound 3.16 µM, first compound 0.1 µM
[27] = second compound 3.16 µM, first compound 0.316 µM
[28] = second compound 3.16 µM, first compound 1 µM
[29] = second compound 3.16 µM, first compound 3.16 µM
[30] = second compound 3.16 µM, first compound 10 µM
[31] = second compound 10 µM, first compound 0.0316 µM
[32] = second compound 10 µM, first compound 0.1 µM
[33] = second compound 10 µM, first compound 0.316 µM
[34] = second compound 10 µM, first compound 1 µM
[35] = second compound 10 µM, first compound 3.16 µM
[36] = second compound 10 µM, first compound 10 µM
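Note: spheroids exposed to the compounds for one week.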
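Throughout, for viability, T/C: percent of tumor spheroid viability relative to DMSO vehicle control wells.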

COc1ccc([C@@H](O)c2cc(-c3ncnc4cc(N5CCOCC5)ccc34)c(F)cc2Cl)nn1 + Cc1[nH]c2ccc(F)cc2c1-c1nc2c3cccnc3c3ncccc3c2[nH]1
inactive: viability, T/C [1] 114% | viability, T/C [2] 92.6% | viability, T/C [3] 95.5% | viability, T/C [4] 100% | viability, T/C [5] 94.2% | viability, T/C [6] 58.7% | viability, T/C [7] 121% | viability, T/C [8] 98% | viability, T/C [9] 104% | viability, T/C [10] 94% | viability, T/C [11] 83.7% | viability, T/C [12] 51.7% | viability, T/C [13] 103% | viability, T/C [14] 96.7% | viability, T/C [15] 85.9% | viability, T/C [16] 94.4% | viability, T/C [17] 73.6% | viability, T/C [18] 57.5% | viability, T/C [19] 73.7% | viability, T/C [20] 85.9% | viability, T/C [21] 67.6% | viability, T/C [22] 68.7% | viability, T/C [23] 59.2% | viability, T/C [24] 30% | viability, T/C [25] 11.3%
> 7.50: pIC50 (second compound 3.16 µM) | pIC50 (second compound 10 µM)
active: viability, T/C [26] 6.47% | viability, T/C [27] 12.8% | viability, T/C [28] 5.75% | viability, T/C [29] 10.1% | viability, T/C [30] 3.06% | viability, T/C [31] 1.38% | viability, T/C [32] 2.32% | viability, T/C [33] 1.63% | viability, T/C [34] 1.42% | viability, T/C [35] 1.48% | viability, T/C [36] 1.5%
< 5.00: pIC50 (second compound 0.0316 µM) | pIC50 (second compound 0.1 µM) | pIC50 (second compound 0.316 µM)
5.36: pIC50 (second compound 1 µM)

CC1COCCN1c1cc(C2(S(C)(=N)=O)CC2)nc(-c2ccnc3[nH]ccc23)n1 (centres undefined) + Cc1cnc(CNC(=O)c2c(=O)c3ccc(N4CCCN(C)CC4)nc3n3c2sc2ccccc23)cn1
inactive: viability, T/C [1] 73.9% | viability, T/C [2] 66.2% | viability, T/C [3] 55.8% | viability, T/C [4] 15.9% | viability, T/C [7] 63.4% | viability, T/C [8] 47.5% | viability, T/C [9] 31.3% | viability, T/C [10] 11.4% | viability, T/C [13] 25.2% | viability, T/C [14] 19.2% | viability, T/C [15] 19.4% | viability, T/C [16] 8.96% | viability, T/C [19] 19.8% | viability, T/C [20] 20.2% | viability, T/C [21] 17.1% | viability, T/C [22] 8.13% | viability, T/C [25] 25.1% | viability, T/C [26] 18.4% | viability, T/C [27] 17%
6.44: pIC50 (second compound 0.0316 µM)
active: viability, T/C [5] 4.2% | viability, T/C [6] 3.7% | viability, T/C [11] 5.24% | viability, T/C [12] 3.6% | viability, T/C [17] 4.98% | viability, T/C [18] 4.66% | viability, T/C [23] 4.36% | viability, T/C [24] 4.77% | viability, T/C [28] 4.84% | viability, T/C [29] 3.04% | viability, T/C [30] 3.44% | viability, T/C [31] 0.12% | viability, T/C [32] 0.18% | viability, T/C [33] 0.22% | viability, T/C [34] 0.19% | viability, T/C [35] 0.24% | viability, T/C [36] 0.23%
> 7.50: pIC50 (second compound 0.316 µM) | pIC50 (second compound 1 µM) | pIC50 (second compound 3.16 µM) | pIC50 (second compound 10 µM)
7.03: pIC50 (second compound 0.1 µM)
